From patent publication US20250059156A1, “THERAPEUTIC ALKALOID COMPOUNDS” (Sensorium Therapeutics, Inc., priority 2022, published 2025)

What was measured:
SERT = SERT (Homo sapiens (Human), UniProt P31645); assay: SERT inhibition assay (Neurotransmitter Transporter Fluorescence assay); format: cell-based; conditions: class symbols; legend in nM/micromolar
Procedure: SERT inhibition was measured using a Neruotransmitter Transportation Fluorescence assay. Briefly, stable 5HHH cells were prepared in a 384 microwell plate. Compounds were prepared by in assay buffer (20 mM HEPES, 0.1% BSA). The compounds were added to the plated cells and incubated for 30 minutes at 37° C. 25 μL of dye solution (Molecular Devices Neurotransmitter Transporter Uptake Assay Kit) was added per well and incubated for 30 minutes at 37° C. The plates were then read on a plate reader.

PDE4A1A = PDE4A1A (Homo sapiens (Human), UniProt P27815); assay: PDE4 percent inhibition assay; format: biochemical; conditions: for inhibition at 10 µM: read-out: PDE4 Isoform % Inhibition @ 10 μM PDE4A1A
Sequence of PDE4A1A (P27815 other isoform, or with tags, fused parts or gaps): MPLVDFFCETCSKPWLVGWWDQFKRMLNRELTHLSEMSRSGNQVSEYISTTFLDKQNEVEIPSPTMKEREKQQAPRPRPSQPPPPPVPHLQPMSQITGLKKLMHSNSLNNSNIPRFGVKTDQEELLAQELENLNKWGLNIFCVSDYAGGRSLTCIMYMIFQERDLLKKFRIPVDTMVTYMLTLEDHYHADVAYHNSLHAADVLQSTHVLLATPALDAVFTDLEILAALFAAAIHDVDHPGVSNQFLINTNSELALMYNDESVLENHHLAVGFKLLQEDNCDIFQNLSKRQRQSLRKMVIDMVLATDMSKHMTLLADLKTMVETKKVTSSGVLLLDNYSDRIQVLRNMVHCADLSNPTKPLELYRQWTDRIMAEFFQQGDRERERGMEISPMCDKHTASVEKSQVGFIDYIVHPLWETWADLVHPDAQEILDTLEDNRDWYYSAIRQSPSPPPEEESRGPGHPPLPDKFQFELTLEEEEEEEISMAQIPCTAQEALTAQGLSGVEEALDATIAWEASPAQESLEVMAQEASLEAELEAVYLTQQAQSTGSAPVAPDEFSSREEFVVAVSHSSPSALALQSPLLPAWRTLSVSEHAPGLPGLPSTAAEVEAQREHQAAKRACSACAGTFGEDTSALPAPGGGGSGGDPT
Procedure: (§1) PDE4 assay kit (BPS Bioscience, San Diego, CA), as described below.
(§2) • 1) Dilute 20 μM FAM-Cyclic-3′, 5′-AMP stock 100-fold with PDE buffer to make a 200 nM solution. Make only sufficient quantity needed for the assay; store remaining 20 μM stock solution in aliquots at −20° C. • 2) Add 25 μl of FAM-Cyclic-3′,5′-AMP (200 nM) to each well designated “Positive Control”, “Test Inhibitor”, and “Substrate Control”. • 3) Add 20 μl of PDE assay buffer to each well designated “Substrate Control” and 45 μl of PDE assay buffer to each well designated “Blank”. • 4) Add 5 μl of inhibitor solution to each well designated “Test Inhibitor”. For the wells labeled “Positive Control”, “Substrate Control” and “Blank”, add 5 μl of the same solution without inhibitor (inhibitor buffer). • 5) Thaw PDE on ice. Upon first thaw, briefly spin tube containing enzyme to recover the full contents of the tube. • 6) Dilute PDE4 in PDE buffer to 7.5 pg/μl (0.15 ng/reaction)*. Initiate reaction by adding 20 μl of PDE4 (7.5 pg/μl) to the wells designated “Positive Control” and “Test Inhibitor.” • 7) Incubate at room temperature for 1 hour.
(§3) • 1) Mix binding agent thoroughly and dilute binding agent 1:100 with binding agent diluent. • 2) Add 100 μl diluted binding agent to each microwell. Incubate at room temperature for 1 hour with slow shaking. • 3) Read the fluorescent polarization of the sample in a microtiter-plate reader equipped for the measurement of fluorescence polarization, capable of excitation at wavelengths ranging from 485±5 nm and detection of emitted light ranging from 528±10 nm. Blank value is subtracted from all other values.
(§4) 100 µM dilutions of the test compounds were prepared in assay buffer (10% DMSO concentration) and 5 μl of the dilution was added to a 50 μl reaction so that the final concentration of DMSO is 1% in all of reactions.
(§5) The enzymatic reactions were conducted at room temperature for 60 minutes in a 50 μl mixture containing PDE assay buffer, 100 nM FAM-cAMP, a PDE enzyme and the test compound.
(§6) After the enzymatic reaction, 100 Is of a binding solution (1:100 dilution of the binding agent with the binding agent diluent) was added to each reaction and the reaction was performed at room temperature for 60 minutes.
(§7) Fluorescence intensity was measured at an excitation of 485 nm and an emission of 528 nm using a Tecan Infinite M1000 microplate reader.

PDE4B2 = PDE4B2 (Homo sapiens (Human), UniProt Q07343); assay: PDE4 percent inhibition assay; format: biochemical; conditions: for inhibition at 10 µM: read-out: PDE4 Isoform % Inhibition @ 10 μM PDE4B2
Sequence of PDE4B2 (Q07343 other isoform, or with tags, fused parts or gaps): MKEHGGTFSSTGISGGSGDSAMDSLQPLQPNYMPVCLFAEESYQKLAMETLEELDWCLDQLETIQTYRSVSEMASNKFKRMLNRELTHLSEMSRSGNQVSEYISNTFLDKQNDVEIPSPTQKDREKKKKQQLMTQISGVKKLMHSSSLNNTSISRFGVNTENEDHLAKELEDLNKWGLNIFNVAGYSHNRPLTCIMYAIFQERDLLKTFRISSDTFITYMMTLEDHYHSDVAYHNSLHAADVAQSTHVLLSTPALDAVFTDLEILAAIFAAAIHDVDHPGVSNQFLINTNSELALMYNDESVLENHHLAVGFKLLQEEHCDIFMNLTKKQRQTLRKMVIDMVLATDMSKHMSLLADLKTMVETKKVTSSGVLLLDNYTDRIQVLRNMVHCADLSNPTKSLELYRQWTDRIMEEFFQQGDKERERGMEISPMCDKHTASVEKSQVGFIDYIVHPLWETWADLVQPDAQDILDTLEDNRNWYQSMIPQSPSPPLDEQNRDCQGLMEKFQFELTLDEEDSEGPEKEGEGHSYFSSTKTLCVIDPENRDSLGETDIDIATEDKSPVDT
Procedure: as §1, §2, §3, §4, §5, §6, §7

PDE4C1 = PDE4C1 (Homo sapiens (Human), UniProt Q08493); assay: PDE4 percent inhibition assay; format: biochemical; conditions: for inhibition at 10 µM: read-out: PDE4 Isoform % Inhibition @ 10 μM PDE4C1
Sequence of PDE4C1 (Q08493 whole entry, canonical isoform): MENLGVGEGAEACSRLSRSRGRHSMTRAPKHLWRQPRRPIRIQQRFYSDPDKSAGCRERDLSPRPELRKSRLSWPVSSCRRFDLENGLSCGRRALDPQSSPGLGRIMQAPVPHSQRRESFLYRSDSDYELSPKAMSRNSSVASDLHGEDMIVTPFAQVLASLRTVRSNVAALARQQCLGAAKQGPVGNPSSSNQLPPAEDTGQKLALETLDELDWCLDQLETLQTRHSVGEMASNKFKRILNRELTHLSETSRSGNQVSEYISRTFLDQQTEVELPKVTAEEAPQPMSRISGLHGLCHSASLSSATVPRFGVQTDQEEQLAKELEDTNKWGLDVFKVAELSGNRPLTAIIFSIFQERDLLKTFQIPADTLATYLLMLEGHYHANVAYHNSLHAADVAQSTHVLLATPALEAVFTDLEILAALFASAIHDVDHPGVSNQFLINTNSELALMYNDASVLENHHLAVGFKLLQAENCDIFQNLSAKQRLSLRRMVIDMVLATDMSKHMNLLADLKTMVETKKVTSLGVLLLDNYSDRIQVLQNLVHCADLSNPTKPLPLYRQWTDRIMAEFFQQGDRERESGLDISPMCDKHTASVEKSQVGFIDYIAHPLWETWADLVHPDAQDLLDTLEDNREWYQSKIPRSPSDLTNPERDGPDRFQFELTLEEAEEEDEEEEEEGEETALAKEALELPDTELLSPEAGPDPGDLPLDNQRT
Procedure: as §1, §2, §3, §4, §5, §6, §7

PDE4D2 = PDE4D2 (Homo sapiens (Human), UniProt Q08499); assay: PDE4 percent inhibition assay; format: biochemical; conditions: for inhibition at 10 µM: read-out: PDE4 Isoform % Inhibition @ 10 μM PDE4D2
Sequence of PDE4D2 (Q08499 303-809, change not shown): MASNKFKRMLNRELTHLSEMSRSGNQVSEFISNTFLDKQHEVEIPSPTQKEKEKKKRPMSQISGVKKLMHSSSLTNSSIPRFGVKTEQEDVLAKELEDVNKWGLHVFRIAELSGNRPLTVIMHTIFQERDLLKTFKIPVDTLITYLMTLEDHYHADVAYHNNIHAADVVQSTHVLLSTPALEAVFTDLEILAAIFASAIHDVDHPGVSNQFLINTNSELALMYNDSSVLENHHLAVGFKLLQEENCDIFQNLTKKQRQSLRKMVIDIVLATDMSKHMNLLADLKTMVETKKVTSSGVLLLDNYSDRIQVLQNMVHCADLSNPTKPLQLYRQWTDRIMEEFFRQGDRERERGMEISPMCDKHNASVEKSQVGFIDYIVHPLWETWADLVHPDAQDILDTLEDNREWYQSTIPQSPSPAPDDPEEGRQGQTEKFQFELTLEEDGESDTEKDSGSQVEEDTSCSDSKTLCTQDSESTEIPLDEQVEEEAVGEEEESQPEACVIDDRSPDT
Procedure: as §1, §2, §3, §4, §5, §6, §7

Sequence of SERT (P31645 whole entry, species assumed): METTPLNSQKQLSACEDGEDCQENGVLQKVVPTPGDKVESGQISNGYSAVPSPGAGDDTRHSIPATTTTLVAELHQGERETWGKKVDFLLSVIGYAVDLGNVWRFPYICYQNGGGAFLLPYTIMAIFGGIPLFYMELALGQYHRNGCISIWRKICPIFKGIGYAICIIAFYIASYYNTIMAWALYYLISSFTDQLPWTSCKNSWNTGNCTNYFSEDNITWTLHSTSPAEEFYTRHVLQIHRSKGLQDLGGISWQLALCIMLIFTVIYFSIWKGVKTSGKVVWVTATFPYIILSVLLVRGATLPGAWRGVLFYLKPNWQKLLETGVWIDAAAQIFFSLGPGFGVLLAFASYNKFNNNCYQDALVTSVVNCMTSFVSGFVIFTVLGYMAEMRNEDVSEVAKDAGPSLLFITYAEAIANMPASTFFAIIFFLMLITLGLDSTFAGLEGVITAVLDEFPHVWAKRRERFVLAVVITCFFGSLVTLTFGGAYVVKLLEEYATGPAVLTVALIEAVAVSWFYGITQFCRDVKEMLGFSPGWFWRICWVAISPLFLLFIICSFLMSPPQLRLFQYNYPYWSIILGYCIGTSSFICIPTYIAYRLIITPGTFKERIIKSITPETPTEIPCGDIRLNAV

| Structure (SMILES) | IC50 (SERT) | inhibition at 10 µM (PDE4A1A) | inhibition at 10 µM (PDE4B2) | inhibition at 10 µM (PDE4C1) | inhibition at 10 µM (PDE4D2) | PDE4 Isoform % Inhibition @ 10 μM PDE4A1A (PDE4A1A) | PDE4 Isoform % Inhibition @ 10 μM PDE4B2 (PDE4B2) | PDE4 Isoform % Inhibition @ 10 μM PDE4C1 (PDE4C1) | PDE4 Isoform % Inhibition @ 10 μM PDE4D2 (PDE4D2) |
| --- | --- | --- | --- | --- | --- | --- | --- | --- | --- |
| COc1ccc([C@@]23CC[C@H](N4CCCC4=O)C[C@@H]2N(C)CC3)cc1OC [Compound 111, 1-((3aS,6S,7aS)-3a-(3,4-dimethoxyphenyl)-1-methyloctahydro-1H-indol-6-yl)pyrrolidin-2-one] | < 50 nM | < 30% | < 30% | < 30% | < 30% |  |  |  |  |
| COc1ccc([C@@]23CC[C@@H](N4CCOCC4)C[C@@H]2N(C)CC3)cc1OC [Compound 109, 4-((3aS,6R,7aS)-3a-(3,4-dimethoxyphenyl)-1-methyloctahydro-1H-indol-6-yl)morpholine] | 100 to 500 nM | < 30% | < 30% | < 30% | < 30% |  |  |  |  |
| COc1ccc([C@]23CCN(C)[C@H]2CC2(CCCO2)CC3)cc1OC (some centres unmarked) [Compound 117, (3a'S,7a'S)-3a′-(3,4-dimethoxyphenyl)-1′-methyldecahydro-3H-spiro[furan-2,6′-indole]] | < 50 nM | 30 to 50% | 30 to 50% | < 30% | 30 to 50% |  |  |  |  |
| COc1ccc([C@@]23CC[C@H](n4ccc(C(F)(F)F)n4)C[C@@H]2N(C)CC3)cc1OC [Compound 101, (3aS,6S,7aS)-3a-(3,4-dimethoxyphenyl)-1-methyl-6-(3-(trifluoromethyl)-1H-pyrazol-1-yl)octahydro-1H-indole] |  | < 30% | < 30% | < 30% | < 30% |  |  |  |  |
| COc1ccc([C@@]23CC[C@@H](N4CCCC4)C[C@@H]2N(C)CC3)cc1OC [Compound 105, (3aS,6R,7aS)-3a-(3,4-dimethoxyphenyl)-1-methyl-6-(pyrrolidin-1-yl)octahydro-1H-indole] | 100 to 500 nM | < 30% | < 30% | < 30% | < 30% |  |  |  |  |
| COc1ccc([C@@]23CCN(C)[C@@H]2[C@@H]2C[C@H]3CC2=O)cc1OC [Compound 216] | 50 to 100 nM |  |  |  |  | D (D if the percent inhibition is less than 30%) | D (D if the percent inhibition is less than 30%) | C (C is the percent inhibition is 30-50%) | D (D if the percent inhibition is less than 30%) |
| COc1ccc([C@@]23CC[C@H](N4CCCC4)C[C@@H]2N(C)CC3)cc1OC [Compound 106, (3aS,6S,7aS)-3a-(3,4-dimethoxyphenyl)-1-methyl-6-(pyrrolidin-1-yl)octahydro-1H-indole] | 500 to 1000 nM | < 30% | < 30% | < 30% | < 30% |  |  |  |  |
| COc1ccc([C@]23CC[C@H](n4ccc(C(F)(F)F)n4)C[C@H]2N(C)CC3)cc1OC [Compound 122] | > 1000 nM |  |  |  |  | D (D if the percent inhibition is less than 30%) | D (D if the percent inhibition is less than 30%) | D (D if the percent inhibition is less than 30%) | D (D if the percent inhibition is less than 30%) |
| COc1ccc([C@]23CCN(C)[C@H]2[C@H]2CC[C@@H]3CC2=O)cc1OC [Compound 203] | 50 to 100 nM |  |  |  |  | D (D if the percent inhibition is less than 30%) | B (B if the percent inhibition is 50-70%) | C (C is the percent inhibition is 30-50%) | B (B if the percent inhibition is 50-70%) |
| COc1ccc([C@]23CC[C@@H](n4ccc(C(F)(F)F)n4)C[C@H]2N(C)CC3)cc1OC [Compound 121] | 100 to 500 nM |  |  |  |  | D (D if the percent inhibition is less than 30%) | B (B if the percent inhibition is 50-70%) | D (D if the percent inhibition is less than 30%) | B (B if the percent inhibition is 50-70%) |
| COc1ccc([C@]23CCN(C)[C@H]2[C@H]2C[C@@H]3CC2=O)cc1OC [Compound 215] | 50 to 100 nM |  |  |  |  | D (D if the percent inhibition is less than 30%) | D (D if the percent inhibition is less than 30%) | D (D if the percent inhibition is less than 30%) | D (D if the percent inhibition is less than 30%) |
| COc1ccc([C@@]23CCC(=O)C[C@@H]2N(C(C)C)CC3)cc1OC [Compound 226] | 500 to 1000 nM |  |  |  |  |  |  |  |  |
| COc1ccc([C@]23CCN(C)[C@H]2[C@@H]2C[C@H]3CC2=O)cc1OC [Compound 213] | > 1000 nM |  |  |  |  | A (A if the % inhibition is greater than or equal to 70%) | A (A if the % inhibition is greater than or equal to 70%) | A (A if the % inhibition is greater than or equal to 70%) | A (A if the % inhibition is greater than or equal to 70%) |
| COc1ccc([C@]23CCN(C)[C@H]2CC(=O)C[C@H]3c2ccccc2)cc1OC [Compound 207] | > 1000 nM |  |  |  |  | B (B if the percent inhibition is 50-70%) | B (B if the percent inhibition is 50-70%) | B (B if the percent inhibition is 50-70%) | B (B if the percent inhibition is 50-70%) |
| COc1ccc([C@@]23CC[C@@H](n4cccn4)C[C@@H]2N(C)CC3)cc1OC [Compound 103, (3aS,6R,7aS)-3a-(3,4-dimethoxyphenyl)-1-methyl-6-(1H-pyrazol-1-yl)octahydro-1H-indole] | < 50 nM | < 30% | < 30% | < 30% | < 30% |  |  |  |  |
| COc1ccc([C@]23CCN(C)[C@H]2[C@@H]2CC[C@H]3CC2=O)cc1OC [Compound 204] | 100 to 500 nM |  |  |  |  | A (A if the % inhibition is greater than or equal to 70%) | A (A if the % inhibition is greater than or equal to 70%) | A (A if the % inhibition is greater than or equal to 70%) | A (A if the % inhibition is greater than or equal to 70%) |
| COc1ccc([C@@]23CC[C@@H](N4CCC4)C[C@@H]2N(C)CC3)cc1OC [Compound 116, (3aS,6R,7aS)-6-(azetidin-1-yl)-3a-(3,4-dimethoxyphenyl)-1-methyloctahydro-1H-indole] | 500 to 1000 nM | < 30% | < 30% | < 30% | < 30% |  |  |  |  |
| COc1ccc([C@]23CCC(=O)C[C@H]2N(C(C)C)CC3)cc1OC [Compound 227] | 500 to 1000 nM |  |  |  |  |  |  |  |  |
| CCN1CC[C@]2(c3ccc(OC)c(OC)c3)CCC(=O)C[C@H]12 [Compound 223] | > 1000 nM |  |  |  |  |  |  |  |  |
| CCN1CC[C@@]2(c3ccc(OC)c(OC)c3)CCC(=O)C[C@@H]12 [Compound 224] | < 50 nM |  |  |  |  |  |  |  |  |
